Test results reported in PubChem BioAssay AID330 (DTP/NCI, 2004).
Several values for one entry are separate records, joined by “and”; a condition that tells them apart may be missing. Equal values may be shown once. Inconclusive results and toxic doses are left out. How the source made its calls: active means survival T/C of 150% or more; inactive means T/C below 125% in these data.

Test system: P388 leukemia ip, CD2F1 mice, survival T/C
Assay: NCI In Vivo Anticancer Drug Screen. Data for tumor model P388 Leukemia (intraperitoneal) in CD2F1 (CDF1) mice
Conditions: endpoint: median survival time, higher = longer survival
Summary of the method: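 Mice carrying the transplanted tumor received test compound or vehicle. Survival was recorded in each group, and the value is the treated-group measurement divided by that of the vehicle-treated control group.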

[1] = dose: 50.0 mg/kg/injection, schedule: Q01DX009 (ip), vehicle: saline with Tween-80
[2] = dose: 100.0 mg/kg/injection, schedule: Q01DX009 (ip), vehicle: saline with Tween-80
[3] = dose: 50.0 mg/kg/injection, schedule: Q01DX009 (ip), vehicle: Klucel (hydroxypropylcellulose) (HPC)
[4] = dose: 50.0 mg/kg/injection, schedule: Q01DX005 (ip), vehicle: saline with Tween-80
[5] = dose: 100.0 mg/kg/injection, schedule: Q01DX005 (ip), vehicle: saline with Tween-80
[6] = dose: 200.0 mg/kg/injection, schedule: Q01DX005 (ip), vehicle: saline with Tween-80
[7] = dose: 200.0 mg/kg/injection, schedule: Q01DX009 (ip), vehicle: saline with Tween-80
[8] = dose: 50.0 mg/kg/injection, schedule: Q01DX005 (ip), vehicle: Klucel (hydroxypropylcellulose) (HPC)
[9] = dose: 100.0 mg/kg/injection, schedule: Q01DX005 (ip), vehicle: Klucel (hydroxypropylcellulose) (HPC)
[10] = dose: 200.0 mg/kg/injection, schedule: Q01DX005 (ip), vehicle: Klucel (hydroxypropylcellulose) (HPC)
[11] = dose: 12.5 mg/kg/injection, schedule: Q01DX009 (ip), vehicle: saline
[12] = dose: 100.0 mg/kg/injection, schedule: Q04DX003 (ip), vehicle: saline
[13] = dose: 200.0 mg/kg/injection, schedule: Q04DX003 (ip), vehicle: saline
[14] = dose: 25.0 mg/kg/injection, schedule: Q01DX009 (ip), vehicle: saline with Tween-80

Measured: T/C

CC(=O)OCC1OC(n2ncc(=O)[nH]c2=O)C(OC(C)=O)C1OC(C)=O (stereo unspecified)
inactive: [1] 122 % of control | dose: 100.0 mg/kg/injection, schedule: Q01DX009 (ip), vehicle: saline sonified 118 % of control | [2] 122 % of control | dose: 200.0 mg/kg/injection, schedule: Q01DX009 (ip), vehicle: saline sonified 122 % of control | dose: 400.0 mg/kg/injection, schedule: Q01DX009 (ip), vehicle: saline sonified 118 % of control | dose: 800.0 mg/kg/injection, schedule: Q01DX009 (ip), vehicle: saline with Tween-80 100 % of control

COc1cccc(N2CC3CC4C=CC3(C2)O4)c1 (stereo unspecified)
inactive: dose: 60.0 mg/kg/injection, schedule: Q01DX005 (ip), vehicle: Klucel (hydroxypropylcellulose) (HPC) 98 % of control | dose: 120.0 mg/kg/injection, schedule: Q01DX005 (ip), vehicle: Klucel (hydroxypropylcellulose) (HPC) 100 % of control | dose: 240.0 mg/kg/injection, schedule: Q01DX005 (ip), vehicle: Klucel (hydroxypropylcellulose) (HPC) 97 % of control

CC(=O)SCCCn1c(=O)n(CCCSC(C)=O)c(=O)n(CCCSC(C)=O)c1=O
inactive: dose: 50.0 mg/kg/injection, schedule: Q01DX005 (ip), vehicle: saline + Tween-80 + alcohol 114 % of control | dose: 100.0 mg/kg/injection, schedule: Q01DX005 (ip), vehicle: saline + Tween-80 + alcohol 110 % of control | dose: 200.0 mg/kg/injection, schedule: Q01DX005 (ip), vehicle: saline + Tween-80 + alcohol 116 % of control

O=C(c1ccccc1)N1C2C=C(c3ccccc3)CC1CC2 (stereo unspecified)
inactive: dose: 100.0 mg/kg/injection, schedule: Q04DX003 (ip), vehicle: Klucel (hydroxypropylcellulose) (HPC) 111 % of control | dose: 200.0 mg/kg/injection, schedule: Q04DX003 (ip), vehicle: Klucel (hydroxypropylcellulose) (HPC) 97 % of control | dose: 400.0 mg/kg/injection, schedule: Q04DX003 (ip), vehicle: Klucel (hydroxypropylcellulose) (HPC) 94 % of control

COc1cc(I)cc(OC)c1OC
inactive: dose: 6.25 mg/kg/injection, schedule: Q01DX009 (ip), vehicle: Klucel (hydroxypropylcellulose) (HPC) 97 % of control | dose: 12.5 mg/kg/injection, schedule: Q01DX009 (ip), vehicle: Klucel (hydroxypropylcellulose) (HPC) 94 % of control | dose: 25.0 mg/kg/injection, schedule: Q01DX009 (ip), vehicle: Klucel (hydroxypropylcellulose) (HPC) 96 % of control | [3] 91 % of control

CCCCCCCC[N+]1([O-])CC[N+](C)([O-])CC1 (stereo unspecified)
inactive: dose: 60.0 mg/kg/injection, schedule: Q01DX005 (ip), vehicle: saline 100 % of control | dose: 120.0 mg/kg/injection, schedule: Q01DX005 (ip), vehicle: saline 101 % of control | dose: 240.0 mg/kg/injection, schedule: Q01DX005 (ip), vehicle: saline 102 % of control

O=C(CSCC(=O)c1ccc([N+](=O)[O-])cc1)c1ccc([N+](=O)[O-])cc1
inactive: [4] 94 % of control | [5] 96 % of control | [6] 87 % of control

COc1cc(OC)c(C(=O)O)cc1C(C)=O
inactive: [1] 105 % of control | [2] 115 % of control | [7] 96 % of control

COc1cccc(C(=O)Nc2ccccc2-c2ccccc2)c1OC
inactive: [4] 97 % of control | [5] 95 % of control | [6] 87 % of control

Cc1ccc(S(=O)(=O)C(C#N)(Cc2c[nH]c3ccccc23)Cc2c[nH]c3ccccc23)cc1
inactive: [8] 107 % of control | [9] 101 % of control | [10] 98 % of control

N#CC12c3ccccc3C(c3ccccc31)C1C(=O)C=CC(=O)C12 (stereo unspecified)
inactive: [11] 111 % of control | dose: 25.0 mg/kg/injection, schedule: Q01DX009 (ip), vehicle: saline 106 % of control | dose: 50.0 mg/kg/injection, schedule: Q01DX009 (ip), vehicle: saline 92 % of control and 96 % of control

Cc1ccn2c(C(C)O)nnc2c1 (stereo unspecified)
inactive: [1] 93 % of control | [2] 90 % of control | [7] 100 % of control

O=C1CCCCC2CC2C1=O (stereo unspecified) (tested in a mixture with another compound)
inactive: dose: 50.0 mg/kg/injection, schedule: Q01DX009 (ip), vehicle: other 101 % of control | dose: 100.0 mg/kg/injection, schedule: Q01DX009 (ip), vehicle: other 100 % of control | dose: 200.0 mg/kg/injection, schedule: Q01DX009 (ip), vehicle: other 108 % of control

CC(C)(C)C=O
inactive: [12] 100 % of control | [13] 100 % of control | dose: 400.0 mg/kg/injection, schedule: Q04DX003 (ip), vehicle: saline 100 % of control

C[N+](C)(C)CCC(=O)c1ccc(O)cc1
inactive: dose: 3.13 mg/kg/injection, schedule: Q01DX009 (ip), vehicle: saline 97 % of control | dose: 6.25 mg/kg/injection, schedule: Q01DX009 (ip), vehicle: saline 100 % of control | [11] 118 % of control

Nc1nc2nc[nH]c2c(=O)[nH]1
inactive: [14] 97 % of control | [1] 98 % of control | [2] 90 % of control | dose: 100.0 mg/kg/injection, schedule: Q01DX009 (ip), vehicle: suspension in saline 97 % of control | [7] 90 % of control | dose: 200.0 mg/kg/injection, schedule: Q01DX009 (ip), vehicle: suspension in saline 92 % of control | dose: 400.0 mg/kg/injection, schedule: Q01DX009 (ip), vehicle: suspension in saline 87 % of control

CCCCn1nnc2cc(-c3c(N)nc(N)nc3CC)ccc21
inactive: [8] 87 % of control | [9] 89 % of control | [10] 89 % of control

O=C(O)C1Cc2c([nH]c3ccccc23)C(C(=O)O)N1 (stereo unspecified)
inactive: dose: 50.0 mg/kg/injection, schedule: Q04DX003 (ip), vehicle: saline 95 % of control | [12] 95 % of control | [13] 93 % of control

CC(C)CC1CC(=O)C(=O)C(CC(C)C)C1 (stereo unspecified)
inactive: [8] 95 % of control | [9] 97 % of control | [10] 110 % of control

NNS(=O)(=O)c1ccccc1
inactive: [1] 103 % of control | [2] 103 % of control

COC(=O)/C(O)=C(/O)C(=O)OC
inactive: [4] 99 % of control | [5] 100 % of control | [6] 99 % of control

CNc1ccc(Nc2cccc(C)c2)c2c1C(=O)c1ccccc1C2=O
inactive: [3] 100 % of control | dose: 100.0 mg/kg/injection, schedule: Q01DX009 (ip), vehicle: Klucel (hydroxypropylcellulose) (HPC) 91 % of control | dose: 200.0 mg/kg/injection, schedule: Q01DX009 (ip), vehicle: Klucel (hydroxypropylcellulose) (HPC) 113 % of control

CCOC(=O)/C=C/C(=O)NN
inactive: dose: 12.5 mg/kg/injection, schedule: Q01DX009 (ip), vehicle: water 89 % of control | dose: 25.0 mg/kg/injection, schedule: Q01DX009 (ip), vehicle: water 100 % of control | dose: 50.0 mg/kg/injection, schedule: Q01DX009 (ip), vehicle: water 99 % of control and 102 % of control and 93 % of control | dose: 100.0 mg/kg/injection, schedule: Q01DX009 (ip), vehicle: water 107 % of control and 109 % of control and 97 % of control | dose: 200.0 mg/kg/injection, schedule: Q01DX009 (ip), vehicle: water 104 % of control and 109 % of control

C/C(=N\NC(=S)N(C)C)c1ncccn1
inactive: dose: 12.5 mg/kg/injection, schedule: Q04DX003 (ip), vehicle: Klucel (hydroxypropylcellulose) (HPC) 107 % of control | dose: 25.0 mg/kg/injection, schedule: Q04DX003 (ip), vehicle: Klucel (hydroxypropylcellulose) (HPC) 103 % of control | dose: 50.0 mg/kg/injection, schedule: Q04DX003 (ip), vehicle: Klucel (hydroxypropylcellulose) (HPC) 105 % of control

N#C/C(=C1C=C/C(=N/O)C=C/1Cl)c1ccccc1
inactive: [1] 95 % of control | [2] 93 % of control | [7] 94 % of control | dose: 400.0 mg/kg/injection, schedule: Q01DX009 (ip), vehicle: saline with Tween-80 94 % of control

Cc1ccc2nc(N/N=C/c3ccccn3)cc(C)c2c1
inactive: [4] 103 % of control and 107 % of control and 111 % of control | [5] 110 % of control and 114 % of control and 115 % of control | [6] 110 % of control

CC1(C)O[C@@H]2C[C@H]3[C@@H]4CCC5=CC(=O)C=C[C@]5(C)[C@@]4(F)[C@@H](O)C[C@]3(C)[C@]2(C(=O)CO)O1
inactive: dose: 12.5 mg/kg/injection, schedule: Q01DX009 (ip), vehicle: saline with Tween-80 109 % of control | [14] 109 % of control

COC(=O)/C=C/CCO
inactive: [1] 111 % of control | [2] 95 % of control | [7] 108 % of control

CCCn1c(CC)nc([N+](=O)[O-])c1Sc1ncnc2nc[nH]c12
inactive: dose: 12.5 mg/kg/injection, schedule: Q01DX005 (ip), vehicle: Klucel (hydroxypropylcellulose) (HPC) 107 % of control | dose: 25.0 mg/kg/injection, schedule: Q01DX005 (ip), vehicle: Klucel (hydroxypropylcellulose) (HPC) 123 % of control | [10] 111 % of control
